Experiments:
HepG2 cells [1] = assay: CellTox Green Cytotoxicity Assay (flor) in HepG2, HepG2[flor]; type: cell-based, human; details: HepG2 flor; for hepg2_flor_bin: kinetics bin; for hepg2_flor_emax_0 / hepg2_flor_pod_0 / hepg2_flor_wauc_0: time point 0;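 for hepg2 flor emax 0: percent activity versus DMSO-only wells with baseline rescaled to 0%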;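 for hepg2 flor emax 40: percent activity versus DMSO-only wells with baseline rescaled to 0%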
HEK293 cells [2] = details: HEK293 glo; for hek293_glo_bin: kinetics bin; for hek293_glo_emax_0 / hek293_glo_pod_0 / hek293_glo_wauc_0: time point 0
HEK293 cells [3] = details: HEK293 flor; for hek293_flor_bin: kinetics bin; for hek293_flor_emax_0 / hek293_flor_pod_0 / hek293_flor_wauc_0: time point 0; for hek293_flor_emax_8 / hek293_flor_pod_8 / hek293_flor_wauc_8: time point 8
HepG2 cells [4] = details: HepG2 glo; for hepg2_glo_bin: kinetics bin; for hepg2_glo_emax_0 / hepg2_glo_pod_0 / hepg2_glo_wauc_0: time point 0
[5] = system: HEK293 and HepG2 cell lines; details: any activity in any time point/assay
[6] = time point 8, given as negative log-scale values
[7] = time point 16, given as negative log-scale values
[8] = time point 24, given as negative log-scale values
[9] = time point 32, given as negative log-scale values
[10] = time point 40, given as negative log-scale values

## CN(C)c1ccc(C(=C2C=CC(=[N+](C)C)C=C2)c2ccccc2)cc1.CN(C)c1ccc(C(=C2C=CC(=[N+](C)C)C=C2)c2ccccc2)cc1.O=C(O)C(=O)O.O=C([O-])C(=O)O.O=C([O-])C(=O)O [Malachite green oxalate]
HepG2 cells [1]
  hepg2_flor_auc: 1.813
  hepg2_flor_time: 8
  hepg2_flor_bin: cv_26 (cv_26: 8 < time < 16)
  hepg2_flor_emax_0: 0
  hepg2_flor_pod_0: -4.417
  hepg2_flor_wauc_0: 0
HepG2 cells [1]; time point 8
  hepg2_flor_emax_8: 44.8674
  hepg2_flor_pod_8: -4.571
  hepg2_flor_wauc_8: 0.868
HepG2 cells [1]; [6]
  hepg2_flor_ec50_8: -4.591
HepG2 cells [1]; time point 16
  hepg2_flor_emax_16: 142.047
  hepg2_flor_pod_16: -5.554
  hepg2_flor_wauc_16: 1.871
HepG2 cells [1]; [7]
  hepg2_flor_ec50_16: -4.76
HepG2 cells [1]; time point 24
  hepg2_flor_emax_24: 168.072
  hepg2_flor_pod_24: -5.707
  hepg2_flor_wauc_24: 2.035
HepG2 cells [1]; [8]
  hepg2_flor_ec50_24: -5.438
HepG2 cells [1]; time point 32
  hepg2_flor_emax_32: 231.16
  hepg2_flor_pod_32: -5.746
  hepg2_flor_wauc_32: 2.119
HepG2 cells [1]; [9]
  hepg2_flor_ec50_32: -5.498
HepG2 cells [1]; time point 40
  hepg2_flor_emax_40: 275.23
  hepg2_flor_pod_40: -6.016
  hepg2_flor_wauc_40: 2.222
HepG2 cells [1]; [10]
  hepg2_flor_ec50_40: -5.565
HEK293 cells [2]
  hek293_glo_auc: 1.897
  hek293_glo_time: 8
  hek293_glo_bin: cv_26 (cv_26: 8 < time < 16)
  hek293_glo_emax_0: 0
  hek293_glo_pod_0: -4.417
  hek293_glo_wauc_0: 0
HEK293 cells [2]; time point 8
  hek293_glo_emax_8: -47.964
  hek293_glo_pod_8: -5.267
  hek293_glo_wauc_8: 1.621
HEK293 cells [2]; [6]
  hek293_glo_ec50_8: -5.275
HEK293 cells [2]; time point 16
  hek293_glo_emax_16: -74.3913
  hek293_glo_pod_16: -6.896
  hek293_glo_wauc_16: 2.239
HEK293 cells [2]; [7]
  hek293_glo_ec50_16: -5.71
HEK293 cells [2]; time point 24
  hek293_glo_emax_24: -84.5759
  hek293_glo_pod_24: -6.8943
  hek293_glo_wauc_24: 2.321
HEK293 cells [2]; [8]
  hek293_glo_ec50_24: -6.073
HEK293 cells [2]; time point 32
  hek293_glo_emax_32: -91.2313
  hek293_glo_pod_32: -6.927
  hek293_glo_wauc_32: 2.36
HEK293 cells [2]; [9]
  hek293_glo_ec50_32: -6.025
HEK293 cells [2]; time point 40
  hek293_glo_emax_40: -94.0423
  hek293_glo_pod_40: -6.941
  hek293_glo_wauc_40: 2.382
HEK293 cells [2]; [10]
  hek293_glo_ec50_40: -6.071
HEK293 cells [3]
  hek293_flor_auc: 1.491
  hek293_flor_time: 24
  hek293_flor_bin: cv_46 (cv_46: 24 < time < 32)
  hek293_flor_emax_0: 0
  hek293_flor_pod_0: -4.417
  hek293_flor_wauc_0: 0
  hek293_flor_emax_8: 0
  hek293_flor_pod_8: -4.417
  hek293_flor_wauc_8: 0
HEK293 cells [3]; time point 16
  hek293_flor_emax_16: 25.2441
  hek293_flor_pod_16: -4.42
  hek293_flor_wauc_16: 0.5325
HEK293 cells [3]; [7]
  hek293_flor_ec50_16: -4.591
HEK293 cells [3]; time point 24
  hek293_flor_emax_24: 72.6532
  hek293_flor_pod_24: -4.806
  hek293_flor_wauc_24: 1.057
HEK293 cells [3]; [8]
  hek293_flor_ec50_24: -4.702
HEK293 cells [3]; time point 32
  hek293_flor_emax_32: 99.3082
  hek293_flor_pod_32: -5.521
  hek293_flor_wauc_32: 1.407
HEK293 cells [3]; [9]
  hek293_flor_ec50_32: -4.895
HEK293 cells [3]; time point 40
  hek293_flor_emax_40: 135.684
  hek293_flor_pod_40: -5.642
  hek293_flor_wauc_40: 1.5
HEK293 cells [3]; [10]
  hek293_flor_ec50_40: -5.028
HepG2 cells [4]
  hepg2_glo_auc: 1.838
  hepg2_glo_time: 0
  hepg2_glo_bin: cv_16 (cv_16: 0 < time < 8)
  hepg2_glo_emax_0: 0
  hepg2_glo_pod_0: -4.417
  hepg2_glo_wauc_0: 0
HepG2 cells [4]; time point 8
  hepg2_glo_emax_8: -63.2822
  hepg2_glo_pod_8: -5.131
  hepg2_glo_wauc_8: 1.514
HepG2 cells [4]; [6]
  hepg2_glo_ec50_8: -4.735
HepG2 cells [4]; time point 16
  hepg2_glo_emax_16: -91.4856
  hepg2_glo_pod_16: -5.607
  hepg2_glo_wauc_16: 1.892
HepG2 cells [4]; [7]
  hepg2_glo_ec50_16: -5.318
HepG2 cells [4]; time point 24
  hepg2_glo_emax_24: -91.3465
  hepg2_glo_pod_24: -5.6539
  hepg2_glo_wauc_24: 1.966
HepG2 cells [4]; [8]
  hepg2_glo_ec50_24: -5.521
HepG2 cells [4]; time point 32
  hepg2_glo_emax_32: -92.3669
  hepg2_glo_pod_32: -5.816
  hepg2_glo_wauc_32: 2.064
HepG2 cells [4]; [9]
  hepg2_glo_ec50_32: -5.627
HepG2 cells [4]; time point 40
  hepg2_glo_emax_40: -91.0249
  hepg2_glo_pod_40: -5.846
  hepg2_glo_wauc_40: 2.087
HepG2 cells [4]; [10]
  hepg2_glo_ec50_40: -5.656
[5]
  information: 1

## Cc1cc(N)c2cc(NC(=O)Nc3ccc4nc(C)cc(N)c4c3)ccc2n1.Cl.Cl [Aminoquinuride dihydrochloride]
HepG2 cells [1]
  hepg2_flor_auc: 0
  hepg2_flor_time: 48
  hepg2_flor_bin: inactive
  hepg2_flor_emax_0: 0
  hepg2_flor_pod_0: -4.417
  hepg2_flor_wauc_0: 0
HepG2 cells [1]; time point 8
  hepg2_flor_emax_8: 0
  hepg2_flor_pod_8: -4.417
  hepg2_flor_wauc_8: 0
HepG2 cells [1]; time point 16
  hepg2_flor_emax_16: 0
  hepg2_flor_pod_16: -4.417
  hepg2_flor_wauc_16: 0
HepG2 cells [1]; time point 24
  hepg2_flor_emax_24: 0
  hepg2_flor_pod_24: -4.417
  hepg2_flor_wauc_24: 0
HepG2 cells [1]; time point 32
  hepg2_flor_emax_32: 0
  hepg2_flor_pod_32: -4.417
  hepg2_flor_wauc_32: 0
HepG2 cells [1]; time point 40
  hepg2_flor_emax_40: 0
  hepg2_flor_pod_40: -4.417
  hepg2_flor_wauc_40: 0
HEK293 cells [2]
  hek293_glo_auc: 0
  hek293_glo_time: 48
  hek293_glo_bin: inactive
  hek293_glo_emax_0: 0
  hek293_glo_pod_0: -4.417
  hek293_glo_wauc_0: 0
HEK293 cells [2]; time point 8
  hek293_glo_emax_8: 0
  hek293_glo_pod_8: -4.417
  hek293_glo_wauc_8: 0
HEK293 cells [2]; time point 16
  hek293_glo_emax_16: 0
  hek293_glo_pod_16: -4.417
  hek293_glo_wauc_16: 0
HEK293 cells [2]; time point 24
  hek293_glo_emax_24: 0
  hek293_glo_pod_24: -4.417
  hek293_glo_wauc_24: 0
HEK293 cells [2]; time point 32
  hek293_glo_emax_32: 0
  hek293_glo_pod_32: -4.417
  hek293_glo_wauc_32: 0
HEK293 cells [2]; time point 40
  hek293_glo_emax_40: 0
  hek293_glo_pod_40: -4.417
  hek293_glo_wauc_40: 0
HEK293 cells [3]
  hek293_flor_auc: 0
  hek293_flor_time: 48
  hek293_flor_bin: inactive
  hek293_flor_emax_0: 0
  hek293_flor_pod_0: -4.417
  hek293_flor_wauc_0: 0
  hek293_flor_emax_8: 0
  hek293_flor_pod_8: -4.417
  hek293_flor_wauc_8: 0
HEK293 cells [3]; time point 16
  hek293_flor_emax_16: 0
  hek293_flor_pod_16: -4.417
  hek293_flor_wauc_16: 0
HEK293 cells [3]; time point 24
  hek293_flor_emax_24: 0
  hek293_flor_pod_24: -4.417
  hek293_flor_wauc_24: 0
HEK293 cells [3]; time point 32
  hek293_flor_emax_32: 0
  hek293_flor_pod_32: -4.417
  hek293_flor_wauc_32: 0
HEK293 cells [3]; time point 40
  hek293_flor_emax_40: 0
  hek293_flor_pod_40: -4.417
  hek293_flor_wauc_40: 0
HepG2 cells [4]
  hepg2_glo_auc: 0
  hepg2_glo_time: 48
  hepg2_glo_bin: inactive
  hepg2_glo_emax_0: 0
  hepg2_glo_pod_0: -4.417
  hepg2_glo_wauc_0: 0
HepG2 cells [4]; time point 8
  hepg2_glo_emax_8: 0
  hepg2_glo_pod_8: -4.417
  hepg2_glo_wauc_8: 0
HepG2 cells [4]; time point 16
  hepg2_glo_emax_16: 0
  hepg2_glo_pod_16: -4.417
  hepg2_glo_wauc_16: 0
HepG2 cells [4]; time point 24
  hepg2_glo_emax_24: 0
  hepg2_glo_pod_24: -4.417
  hepg2_glo_wauc_24: 0
HepG2 cells [4]; time point 32
  hepg2_glo_emax_32: 0
  hepg2_glo_pod_32: -4.417
  hepg2_glo_wauc_32: 0
HepG2 cells [4]; time point 40
  hepg2_glo_emax_40: 0
  hepg2_glo_pod_40: -4.417
  hepg2_glo_wauc_40: 0
[5]
  information: 0

Source: article PMC5439695 (PLoS ONE, 2017)
